Test system: mice
Test: Cecal ligation puncture (CLP) model of sepsis
Type: in vivo, mouse
Description: Knockout of Panx1 specifically from the endothelium or treatment of mice with PanX both reversed the decreased in heat rate typically observed after induction of sepsis. […] Knockout of Panx1 specifically from the endothelium or treatment of mice with PanX both reversed the increased level of blood urea nitrogen, which is due in large part to increased vein permeability in sepsis. The three groups in each graph are Control (left bar), Panx1 Endothelial Cell Knockout Mouse (middle bar), and Control+IL2 (PanX) Peptide treatment.

Question: For KYPIVEQYLKYGRKKQRRR [IL2], which “effect on decreased heart rate after induction of sepsis” value is on record?
Answer: reversed

Question: And the “effect on increased blood urea nitrogen after induction of sepsis” value?
Answer: reversed
